From PubChem BioAssay (NCI)
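Each compound was tested at five concentrations against cells in 96-well plates for 48 hours. The concentration for full growth arrest is given as TGI.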

Experiments:
Experiment in all cases: growth of human tumour cells (NCI), 48 h
BT-549 breast = tested on: BT-549 breast
MDA-MB-231 breast = tested on: MDA-MB-231 breast
NCI-H23 lung = tested on: NCI-H23 lung
HCT-116 colon = tested on: HCT-116 colon
RPMI-8226 leukemia = tested on: RPMI-8226 leukemia
NCI-H460 lung = tested on: NCI-H460 lung
SF-268 CNS = tested on: SF-268 CNS
M14 melanoma = tested on: M14 melanoma
OVCAR-4 ovarian = tested on: OVCAR-4 ovarian
ACHN renal = tested on: ACHN renal
HL-60(TB) leukemia = tested on: HL-60(TB) leukemia
SF-295 CNS = tested on: SF-295 CNS
NCI/ADR-RES ovarian = tested on: NCI/ADR-RES ovarian
UO-31 renal = tested on: UO-31 renal
SK-MEL-5 melanoma = tested on: SK-MEL-5 melanoma
OVCAR-5 ovarian = tested on: OVCAR-5 ovarian
SK-MEL-2 melanoma = tested on: SK-MEL-2 melanoma
CAKI-1 renal = tested on: CAKI-1 renal
TK-10 renal = tested on: TK-10 renal
HOP-92 NSCLC = tested on: HOP-92 NSCLC

Structure (SMILES)	TGI (BT-549 breast) [µM]	TGI (MDA-MB-231 breast) [µM]	TGI (NCI-H23 lung) [µM]	TGI (HCT-116 colon) [µM]	TGI (RPMI-8226 leukemia) [µM]	TGI (NCI-H460 lung) [µM]	TGI (SF-268 CNS) [µM]	TGI (M14 melanoma) [µM]	TGI (OVCAR-4 ovarian) [µM]	TGI (ACHN renal) [µM]	TGI (HL-60(TB) leukemia) [µM]	TGI (SF-295 CNS) [µM]	TGI (NCI/ADR-RES ovarian) [µM]	TGI (UO-31 renal) [µM]	TGI (SK-MEL-5 melanoma) [µM]	TGI (OVCAR-5 ovarian) [µM]	TGI (SK-MEL-2 melanoma) [µM]	TGI (CAKI-1 renal) [µM]	TGI (TK-10 renal) [µM]	TGI (HOP-92 NSCLC) [µM]
N=C1/C(=C/c2ccco2)C(=O)N=C2SC=NN12	> 100	> 100	> 100	> 100	> 100	> 100	> 100	> 100	> 100	> 100	> 100	> 100	> 100	> 100	> 100	> 100	> 100	> 100	> 100	> 100
CCCCCCCCCCCCCCCCCCNc1ccn(C2OC(COP(=O)(O)OCC(COP(=O)(O)OCC3OC(n4cc(C)c(=O)[nH]c4=O)CC3N=[N+]=[N-])OCCCCCCCCCCCCCCCCCC)C(O)C2O)c(=O)n1 (stereo not drawn)	> 100	> 100	> 100	> 100	> 100	> 100	> 100	> 100	> 100	> 100	> 100	> 100	> 100	33.1	> 100	> 100	> 100	> 100	> 100	> 100
COCn1c(=O)n(C)c(=O)c2c1nc1c(c(=O)n(C)c(=O)n1COC)[n+]2[O-]	87.1	44.4	14	39.5	37.8	24.9	77	43.9	43.4	38	39.1	55.4	> 100	> 100	19.7	97.2	36.8	64.5	58.8	42
COc1cc(/C=C2/CCCc3ccccc3C2=O)cc(OC)c1OC	> 78.5	> 51.4	> 87	> 49.9	> 78.9	> 100	> 52.3	> 67.4	> 100	> 100	> 100	> 57.6	> 100	> 60.2	13.6	> 100	> 55	> 59.5	> 100	> 82.2
COc1c(N2CCCCC2)c2c(=O)c3ccccc3oc2c2cc(C)oc12	97.9	44.2	> 100	22.6	50.3	> 100	> 100	53.6	> 100	53.7	58	> 100	> 100	54	40.7	> 100	61.6	37.3	> 100	55.6
C=C1CC(COc2ccc3c(C)c(Cl)c(=O)oc3c2)(c2ccccc2)OC1=O (stereo not drawn)	2.87	14.4	3.84	2.42	1.42	23.5	19	2.24	3.67	6.04	1.42	22.7	11.4	12.5	3.63	25.9	3.36	3.12	3.18	3.01
C/C(=N\N)C(CN1CCCCC1)C(c1ccccc1)c1c(O)c2ccccc2oc1=O (stereo not drawn)	> 100	> 100	> 100	> 100	> 100	> 100	> 100	> 100	> 100	> 100	> 100	> 100	> 100	> 100	> 100	> 100	> 100	> 100	> 100	> 100
O=[N+]([O-])c1ccc(CSc2c3ccccc3nc3ccccc23)cc1	33.4	27.4	25.5	7.14	9.29	46.9	22.8	16.6	31.1	12.9	22.8	41.7	52.1	17	30.5	32.5	32.3	29.6	17.4	> 37.3
CCCCC1CCCCCCc2[nH]c(/C=C3\N=C(c4ccc[nH]4)C=C3OC)cc21 (stereo not drawn)	1.29	1.76	1.28	0.0531	0.226	2.92	2.13		4.23	1.12	0.0103	1.17	0.806	0.071	0.107	2	< 0.0237	4.32	3.18	0.42
CCCCCCCCCCCCCCC(C(=O)[O-])[n+]1ccccc1 (stereo not drawn)	> 100	> 100	> 100	> 100	> 100	> 100	> 100	> 100	> 100	> 100	> 100	> 100	> 100	> 100	> 100	> 100	> 100	> 100	28.8	> 100
Cc1cccc(-c2cccc(COCc3cccc(-c4cccc(CO)n4)n3)n2)n1	> 50	> 50		> 50	> 50	> 50	> 50	> 50	> 50	> 50	> 50	> 5	> 50	> 50	> 50	> 50	> 50	> 50	> 50	> 50
